Experiments:
aorta rings = assay: Vasorelaxant effect in vitro (phenylephrine-contracted aorta rings); settings: Oryctolagus cuniculus, rabbit aorta rings, organ bath, phenylephrine contraction; read-out: IC50 (concentration needed to reduce the phenylephrine contraction by 50%)
Procedure: B-1. Vasorelaxant Effect In Vitro
Rabbits are stunned by a blow to the neck and exsanguinated. The aorta is removed, freed from adhering tissue and divided into rings of a width of 1.5 mm. The rings are placed individually under an initial tension in 5 ml organ baths with Krebs-Henseleit solution which is at 37° C., is gassed with carbogen and has the following composition (in each case mM): sodium chloride: 119; potassium chloride: 4.8; calcium chloride dihydrate: 1; magnesium sulphate heptahydrate: 1.4; potassium dihydrogenphosphate: 1.2; sodium bicarbonate: 25; glucose: 10. The contractile force is determined with Statham UC2 cells, amplified and digitalized using A/D transducers (DAS-1802 HC, Keithley Instruments Munich), and recorded in parallel on linear recorders.
To produce a contraction, phenylephrine is added to the bath cumulatively in increasing concentration. After several control cycles, the substance to be investigated is added in each further run in increasing dosage in each case, and the height of the contraction achieved is compared with the height of the contraction reached in the last preceding run. This is used to calculate the concentration needed to reduce the magnitude of the control value by 50% (IC50 value). The standard administration volume is 5 μl; the DMSO content in the bath solution corresponds to 0.1%.

[1] = tested on: recombinant guanylate cyclase reporter cell line; assay: Effect on a recombinant guanylate cyclase reporter cell line; type: cell-based
Procedure: B-2. Effect on a Recombinant Guanylate Cyclase Reporter Cell Line
The cellular activity of the compounds according to the invention is determined using a recombinant guanylate cyclase reporter cell line, as described in F. Wunder et al., Anal. Biochem. 339, 104-112 (2005).

[2] = target: human phosphodiesterase 5 (PDE 5) (Homo sapiens (Human), UniProt O76074); assay: Inhibition of human phosphodiesterase 5 (PDE 5), SPA assay; type: biochemical; settings: PDE 5 preparation from human platelets, [8-3H] cGMP substrate
Method in brief: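 Enzyme partially purified from human platelets by Mono Q chromatography; [8-3H]cGMP substrate (0.025 μCi per well), enzyme diluted to keep conversion below 70%. Compounds 4 μM to 0.0018 μM final, 60 min at room temperature in Tris pH 7.5/MgCl2/EDTA; yttrium SPA bead read-out; IC50 from concentration–inhibition plot.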

IC50 (aorta rings)	IC50 [2]	Structure (SMILES)	MEC (minimum effective concentration) [1]
91 nM	690 nM	Cc1cc(-c2nc(-c3nn(Cc4ccccc4F)c4ncccc34)nc3c2C(C)(C)C(=O)N3)n(C)n1 [Example 38, 4-(1,3-Dimethyl-1H-pyrazol-5-yl)-2-[1-(2-fluorobenzyl)-1H-pyrazolo[3,4-b]pyridin-3-yl]-5,5-dimethyl-5,7-dihydro-6H-pyrrolo[2,3-d]pyrimidin-6-one]	30 nM
225 nM	240 nM	CC(C)n1ccc(-c2nc(-c3nn(Cc4ccccc4F)c4ncccc34)nc3c2C(C)(C)C(=O)N3)n1 [Example 39, 2-[1-(2-Fluorobenzyl)-1H-pyrazolo[3,4-b]pyridin-3-yl]-4-(1-isopropyl-1H-pyrazol-3-yl)-5,5-dimethyl-5,7-dihydro-6H-pyrrolo[2,3-d]pyrimidin-6-one]	30 nM
227 nM	250 nM	Cn1nccc1-c1nc(-c2nn(Cc3ccccc3F)c3ncccc23)nc2c1C(C)(C)C(=O)N2 [Example 40, 2-[1-(2-Fluorobenzyl)-1H-pyrazolo[3,4-b]pyridin-3-yl]-5,5-dimethyl-4-(1-methyl-1H-pyrazol-5-yl)-5,7-dihydro-6H-pyrrolo[2,3-d]pyrimidin-6-one]	30 nM
4210 nM	1600 nM	Cn1nc(C(F)(F)F)cc1-c1nc(-c2nn(Cc3ccccc3F)c3ncccc23)nc2c1C(C)(C)C(=O)N2 [Example 41, 2-[1-(2-Fluorobenzyl)-1H-pyrazolo[3,4-b]pyridin-3-yl]-5,5-dimethyl-4-[1-methyl-3-(trifluoromethyl)-1H-pyrazol-5-yl]-5,7-dihydro-6H-pyrrolo[2,3-d]pyrimidin-6-one]	300 nM
728 nM	1300 nM	Cn1c(C#N)ccc1-c1nc(-c2nn(Cc3ccccc3F)c3ncccc23)nc2c1C(C)(C)C(=O)N2 [Example 42, 5-{2-[1-(2-Fluorobenzyl)-1H-pyrazolo[3,4-b]pyridin-3-yl]-5,5-dimethyl-6-oxo-6,7-dihydro-5H-pyrrolo[2,3-d]pyrimidin-4-yl}-1-methyl-1H-pyrrole-2-carbonitrile]	10 nM
501 nM	870 nM	CC1(C)C(=O)Nc2nc(-c3nn(Cc4ccccc4F)c4ncc(F)cc34)nc(CN)c21.O=CO [Example 44, 4-(Aminomethyl)-2-[5-fluoro-1-(2-fluorobenzyl)-1H-pyrazolo[3,4-b]pyridin-3-yl]-5,5-dimethyl-5,7-dihydro-6H-pyrrolo[2,3-d]pyrimidin-6-one formate]	30 nM
71 nM	120 nM	COCCCc1nc(-c2nn(Cc3ccccc3F)c3ncccc23)nc2c1C(C)(C)C(=O)N2 [Example 46, 2-[1-(2-Fluorobenzyl)-1H-pyrazolo[3,4-b]pyridin-3-yl]-4-(3-methoxypropyl)-5,5-dimethyl-5,7-dihydro-6H-pyrrolo[2,3-d]pyrimidin-6-one]	100 nM
422 nM	320 nM	CC1(C)C(=O)Nc2nc(-c3nn(Cc4ccccc4F)c4ncc(F)cc34)nc(CNCC(F)(F)F)c21 [Example 57, 2-[5-Fluoro-1-(2-fluorobenzyl)-1H-pyrazolo[3,4-b]pyridin-3-yl]-5,5-dimethyl-4-{[(2,2,2-trifluoroethyl)amino]methyl}-5,7-dihydro-6H-pyrrolo[2,3-d]pyrimidin-6-one]	30 nM
9800 nM	660 nM	CC1(C)C(=O)Nc2nc(-c3nn(Cc4ccccc4F)c4ncc(F)cc34)nc(CCC(F)(F)F)c21 [Example 58, 2-[5-Fluoro-1-(2-fluorobenzyl)-1H-pyrazolo[3,4-b]pyridin-3-yl]-5,5-dimethyl-4-(3,3,3-trifluoropropyl)-5,7-dihydro-6H-pyrrolo[2,3-d]pyrimidin-6-one]	300 nM
